“Also recorded” adds a separate entry of the source.
Legend:
[1] = tested on: G11 human autoantibody; assay: competitive ELISA, G11 autoantibody binding to its antigens
Source text: (§1) FIG. 1A-1E. Compound 12W inhibits antigen recognition by systemic lupus erythematosus (SLE) autoantibodies. A) Structures of Compound 12W and WEY peptide (i.e., a tripeptide identical to the pentapeptide DWEYS (SEQ ID NO:1) less the carboxyl serine residue and the amino terminal aspartate of the pentapeptide). B) R4A mouse autoantibody binding to DWEYS (SEQ ID NO:1) peptide. C) R4A mouse autoantibody binding to DNA. D) G11 human autoantibody binding to DWEYS (SEQ ID NO:1) peptide. E) G11 human autoantibody binding to DNA. In B)-E), antibody binding in the presence of DWEYS peptide is shown in the right plot in each figure. Compound 12W inhibits binding as shown by the left plot in each figure.

[2] = tested on: anti-dsDNA/NMDAR G11/R4A/human lupus antibody; assay: glomerular deposition of anti-dsDNA/NMDAR antibody in vivo; parameters: species or system SCID mice
Experimental: In order to test if Compound 12W was also effective at protecting the kidney, a major target organ in lupus, from antibody deposition, the anti-dsDNA/NMDAR G11/R4A/human lupus antibody was administered to SCID mice in the absence and presence of Compound 12W and glomerular deposition was measured.

[3] = tested on: R4A or G11 antibodies; assay: neurotoxicity of intracerebrally injected lupus autoantibodies, TUNEL staining; format: in vivo, mice
Experimental: FIG. 3. Compound 12W inhibits neurotoxicity of autoantibodies. The lupus autoantibodies caused significant neuronal apoptosis, as indicated by positive TUNEL staining (right panels).
Both R4A and G11 cause excitotoxic death of neurons in the mouse hippocampus (Zhang et al. 2009). Therefore, the ability of Compound 12W to negate the neurotoxicity of these autoantibodies was assayed. To test the neuroprotective potential of Compound 12W, mice were injected intracerebrally with R4A or G11 antibodies in the presence and absence of Compound 12W. As shown previously, the lupus autoantibodies caused significant neuronal apoptosis, as indicated by positive TUNEL staining (FIG. 3, upper and lower right panels). […] The neuroprotective dose of Compound 12W was 2 logs less than that previously used to achieve similar neuroprotection with the DWEYS (SEQ ID NO:1) peptide (Huerta et al. 2006).

[4] = tested on: human lupus sera; assay: binding of lupus sera to mouse kidney glomeruli; details: data not shown
Experimental: (§2) The studies above tested the ability of Compound 12W to neutralize monoclonal antibodies derived from mouse or human lupus sera. It was next tested whether Compound 12W would be similarly effective in inhibiting the polyclonal autoreactivity present in lupus patient sera (FIG. 4). Sera from lupus patients were pre-incubated with the Compound 12W and binding to DWEYS (SEQ ID NO:1) and dsDNA was then assayed in a competitive ELISA. […] The ability of Compound 12W to inhibit binding of lupus sera to mouse kidney glomeruli was also assayed.

[5] = tested on: autoantibodies present in serum from multiple lupus patients; assay: competitive ELISA, lupus patient sera binding to DWEYS peptide; parameters: species or system human; details: sera pre-incubated, FIG. 4
Experimental: FIG. 4. Compound 12W inhibits autoantibodies present in human SLE sera. Inhibition of human SLE sera binding to antigens in vitro.
as §2

[6] = tested on: R4A mouse autoantibody; assay: competitive ELISA, R4A autoantibody binding to its antigens; details: in vitro; for inhibition of R4A binding to DWEYS peptide: antigen DWEYS peptide, FIG. 1B; for inhibition of R4A binding to dsDNA: antigen dsDNA, FIG. 1C
Source text: as §1

[7] = tested on: R4A antibody; assay: R4A binding to mouse kidney glomeruli in situ; details: for inhibition of R4A binding to mouse kidney glomeruli: antibody pre-incubated, presence and absence of DNAse, FIG. 2A
Source text: FIG. 2A-2B. Compound 12W inhibits SLE autoantibody binding to glomeruli in situ. A) Data with R4A. B) Data with G11. From left to right: control, +DNAse, +Compound 12W, +DNAse+Compound 12W.
The kidney is a major target organ in SLE, with renal disease occurring in approximately 50% of patients. Glomerular deposition of circulating autoantibodies leads to a cascade of inflammatory events including renal infiltration by activated immune cells, activation of dendritic cells through Toll-like receptors and pro-inflammatory cytokine production (Bagavant and Fu 2009), which can culminate in end-stage renal disease. […] The R4A and G11 antibodies, as well as other pathogenic lupus antibodies, bind to both DNA and non-DNA antigens present in kidney glomeruli ex vivo. […] To test if Compound 12W could block the binding of the R4A antibody to its renal antigens in situ, the R4A antibody was incubated with mouse kidney glomeruli in the presence and absence of Compound 12W and its binding measured by detection with fluorescently-conjugated secondary antibodies.

[8] = tested on: anti-BSA antibody; assay: binding of an anti-BSA antibody to BSA (specificity control); details: data not shown
[9] = tested on: anti-dsDNA/NMDAR G11/R4A/human lupus antibody; details: mice; Gaynor et al. 1997, Huerta et al. 2006; cited from earlier work
[10] = tested on: R4A antibody; details: literature; cited from earlier work

| Molecule | inhibition of G11 binding to DNA ([1]; antigen DNA, FIG. 1E) | inhibition of G11 binding to DWEYS peptide ([1]; antigen DWEYS peptide, FIG. 1D) | autoantibody binding to renal tissue in vivo [2] | neuroprotective dose relative to that previously used with the DWEYS peptide ([3]; less than DWEYS peptide dose (Huerta et al. 2006)) [logs] | neuronal apoptosis caused by lupus autoantibodies (TUNEL staining) ([3]; mice, intracerebral co-administration with R4A or G11, FIG. 3) | inhibition of binding of human lupus sera to mouse kidney glomeruli [4] | inhibition of lupus patient sera binding to DWEYS peptide [5] | inhibition of R4A binding to DWEYS peptide [6] | inhibition of R4A binding to dsDNA [6] | inhibition of R4A binding to mouse kidney glomeruli [7] | dose dependence of inhibition of R4A binding to glomeruli ([7]; data not shown) | inhibition of binding of an anti-BSA antibody to BSA [8] | renal (and brain) deposition of anti-DNA/NMDAR antibodies in vivo, literature [9] | glomerular binding by R4A blocked (Gaynor et al 1997) [10] |
| --- | --- | --- | --- | --- | --- | --- | --- | --- | --- | --- | --- | --- | --- | --- |
| CC(C)(C)NCC1CC2CCCCC2CN1CC(O)C(Cc1ccccc1)NCC(CCN)NCC1Nc2ccccc2CC1O (centres unmarked) [Compound 12W, 2-((4-amino-1-(4-(3-((tert-butylamino)methyl)octahydroisoquinolin-2(1H)-yl)-3-hydroxy-1-phenylbutan-2-ylamino)butan-2-ylamino)methyl)-1,2,3,4-tetrahydroquinolin-3-ol] | inhibited G11 binding at similar concentrations to its effect on R4A binding | inhibited G11 binding at similar concentrations to its effect on R4A binding | blocked autoantibody binding to renal tissue both ex vivo and in vivo | 2 | blocked the neurotoxic effects of the lupus antibodies | blocked binding of human lupus sera to kidney antigens | able to inhibit binding | able to inhibit R4A binding to these same antigens at nM concentrations | able to inhibit R4A binding to these same antigens at nM concentrations | Dramatically less binding was observed to both DNA and non-DNA antigens | dependent on the dose | failed to inhibit binding | – | – |
| DWEYS peptide: pentapeptide DWEYS (SEQ ID NO:1), antigen/mimetope recognised by anti-dsDNA/NMDAR lupus autoantibodies (listed as Homo sapiens) [reference compound] | – | – | – | – | – | – | – | inhibitable by DWEYS (SEQ ID NO:1) peptide at mM concentrations | inhibitable by DWEYS (SEQ ID NO:1) peptide at mM concentrations | could be mimicked by pre-incubation of the R4A antibody with the DWEYS (SEQ ID NO:1) peptide at mM concentrations | – | – | blocks renal and brain deposition of anti-DNA/NMDAR antibodies in mice; also recorded: able to block binding of the anti-dsDNA antibodies to kidneys in vivo | can be blocked |

Source: patent publication US9096576B2, “Compounds and methods for treatment of systemic lupus erythematosus” (The Feinstein Institute For Medical Research, priority 2010, dated 2015)
